Counter-ions that a name gives are not always drawn.
target: T1, BACE-2 (Homo sapiens, UniProt Q9Y5Z0); assay: assay for inhibition of BACE-2; format: biochemical
T1 construct: Recombinant BACE-2 (extracellular domain, expressed in baculovirus and purified using standard methods); made in house
T1 sequence (Q9Y5Z0 63-473 limits assumed): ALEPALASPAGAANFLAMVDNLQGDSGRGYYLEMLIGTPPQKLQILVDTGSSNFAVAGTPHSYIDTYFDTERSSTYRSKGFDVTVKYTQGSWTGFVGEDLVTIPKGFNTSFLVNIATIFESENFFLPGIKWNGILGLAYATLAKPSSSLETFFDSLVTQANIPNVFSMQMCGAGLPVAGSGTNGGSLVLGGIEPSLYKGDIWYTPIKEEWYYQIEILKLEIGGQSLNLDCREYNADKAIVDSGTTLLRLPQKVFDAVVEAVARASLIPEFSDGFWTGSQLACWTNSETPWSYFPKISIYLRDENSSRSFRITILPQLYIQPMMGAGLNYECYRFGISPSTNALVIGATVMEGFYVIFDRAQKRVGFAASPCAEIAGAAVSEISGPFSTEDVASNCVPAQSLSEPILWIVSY

SMILES | IC50
NC1=NC(c2cc(NC(=O)c3ccc(Br)cn3)ccc2F)(C(F)F)CNC1 (stereo not drawn) [Example 201, 5-Bromo-pyridine-2-carboxylic acid [3-(6-amino-2-difluoromethyl-2,3,4,5-tetrahydro-pyrazin-2-yl)-4-fluoro-phenyl]-amide] | 0.024 µM
N#Cc1ccc(C(=O)Nc2ccc(F)c(C3(C(F)F)CNCC(N)=N3)c2)nc1 (stereo not drawn) [Example 202, 5-Cyano-pyridine-2-carboxylic acid [3-(6-amino-2-difluoromethyl-2,3,4,5-tetrahydro-pyrazin-2-yl)-4-fluoro-phenyl]-amide] | 0.066 µM
N#Cc1ccc(C(=O)Nc2ccc(F)c(C3(C(F)F)CNC(=O)C(N)=N3)c2)nc1 (stereo not drawn) [Example 203, 5-Cyano-pyridine-2-carboxylic acid [3-(6-amino-2-difluoromethyl-5-oxo-2,3,4,5-tetrahydro-pyrazin-2-yl)-4-fluoro-phenyl]-amide] | 0.007 µM
COC(=O)N1CC(N)=NC(c2cc(NC(=O)c3ccc(Br)cn3)ccc2F)(C(F)F)C1 (stereo not drawn) [Example 204, 5-Amino-3-{5-[(5-bromo-pyridine-2-carbonyl)-amino]-2-fluoro-phenyl}-3-difluoromethyl-3,6-dihydro-2H-pyrazine-1-carboxylic acid methyl ester] | 0.01 µM
COC(=O)N1CC(N)=NC(c2cc(NC(=O)c3ccc(C#N)cn3)ccc2F)(C(F)F)C1 (stereo not drawn) [Example 205, 5-Amino-3-{5-[(5-cyano-pyridine-2-carbonyl)-amino]-2-fluoro-phenyl}-3-difluoromethyl-3,6-dihydro-2H-pyrazine-1-carboxylic acid methyl ester] | 0.104 µM
CC(=O)N1CC(N)=NC(c2cc(NC(=O)c3ncc(Br)cc3C)ccc2F)(C(F)F)C1 (stereo not drawn) [Example 206, 5-Bromo-3-methyl-pyridine-2-carboxylic acid [3-(4-acetyl-6-amino-2-difluoromethyl-2,3,4,5-tetrahydro-pyrazin-2-yl)-4-fluoro-phenyl]-amide] | 0.004 µM
Cc1cc(Br)cnc1C(=O)Nc1ccc(F)c(C2(C(F)F)CN(C(=O)OCC(Cl)Cl)CC(N)=N2)c1 (stereo not drawn) [Example 207, 5-Amino-3-{5-[(5-bromo-3-methyl-pyridine-2-carbonyl)-amino]-2-fluoro-phenyl}-3-difluoromethyl-3,6-dihydro-2H-pyrazine-1-carboxylic acid 2,2-dichloro-ethyl ester] | 0.003 µM
COCC(=O)N1CC(N)=NC(c2cc(NC(=O)c3ncc(Br)cc3C)ccc2F)(C(F)F)C1 (stereo not drawn) [Example 208, 5-Bromo-3-methyl-pyridine-2-carboxylic acid {3-[6-amino-2-difluoromethyl-4-(2-methoxy-acetyl)-2,3,4,5-tetrahydro-pyrazin-2-yl]-4-fluoro-phenyl}-amide] | 0.004 µM
Cc1cc(Br)cnc1C(=O)Nc1ccc(F)c(C2(C(F)F)CN(C(=O)C3CC3)CC(N)=N2)c1 (stereo not drawn) [Example 209, 5-Bromo-3-methyl-pyridine-2-carboxylic acid [3-(6-amino-4-cyclopropanecarbonyl-2-difluoromethyl-2,3,4,5-tetrahydro-pyrazin-2-yl)-4-fluoro-phenyl]-amide] | 0.006 µM
Cc1cc(Br)cnc1C(=O)Nc1ccc(F)c(C2(C(F)F)CNCC(N)=N2)c1 (stereo not drawn) [Example 210, 5-Bromo-3-methyl-pyridine-2-carboxylic acid [3-(6-amino-2-difluoromethyl-2,3,4,5-tetrahydro-pyrazin-2-yl)-4-fluoro-phenyl]-amide] | 0.023 µM
CC(=O)N1CC(N)=NC(c2cc(NC(=O)c3ncc(OC(F)F)cc3C)ccc2F)(C(F)F)C1 (stereo not drawn) [Example 211, 5-Difluoromethoxy-3-methyl-pyridine-2-carboxylic acid [3-(4-acetyl-6-amino-2-difluoromethyl-2,3,4,5-tetrahydro-pyrazin-2-yl)-4-fluoro-phenyl]-amide] | 0.089 µM
NC1=N[C@@](c2cc(NC(=O)c3ncc(=O)[nH]c3N)ccc2F)(C(F)F)CNC1 [Example 214, 3-Amino-5-oxo-4,5-dihydro-pyrazine-2-carboxylic acid [3-((R)-6-amino-2-difluoromethyl-2,3,4,5-tetrahydro-pyrazin-2-yl)-4-fluoro-phenyl]-amide] | 0.757 µM
COCc1cc(Cl)cnc1C(=O)Nc1ccc(F)c([C@]2(C(F)F)COCC(N)=N2)c1 [Example 215, 5-Chloro-3-methoxymethyl-pyridine-2-carboxylic acid [3-((R)-5-amino-3-difluoromethyl-3,6-dihydro-2H-[1,4]oxazin-3-yl)-4-fluoro-phenyl]-amide] | 0.011 µM
N#Cc1cnc(C(=O)Nc2ccc(F)c([C@]3(C(F)F)COCC(N)=N3)c2)c(Cl)c1 [Example 216] | 0.061 µM
[2H]C([2H])([2H])Oc1cnc(C(=O)Nc2ccc(F)c([C@]3(C(F)F)COCC(N)=N3)c2)c(N)n1 [Example 217] | 0.153 µM
C#CCOc1cnc(C(=O)Nc2ccc(F)c([C@]3(C(F)F)COCC(N)=N3)c2)c(N)n1 [Example 218] | 0.125 µM
NC1=N[C@@](c2cc(NC(=O)c3ccc4c(Cl)c[nH]c4n3)ccc2F)(C(F)F)COC1 [Example 219] | 0.117 µM

SMILES | IC50
NC1=N[C@@](c2cc(NC(=O)c3ncc(C(F)F)nc3N)ccc2F)(C(F)F)COC1 [Example 220] | 0.116 µM
COc1cnc(C(=O)Nc2ccc(F)c([C@]3(C(F)F)COCC(N)=N3)c2)c(C)c1 [Example 221] | 0.065 µM
Cc1cc(C(F)F)cnc1C(=O)Nc1ccc(F)c([C@]2(C(F)F)COCC(N)=N2)c1 [Example 222] | 0.052 µM
[2H]C([2H])([2H])OCc1cc(F)cnc1C(=O)Nc1ccc(F)c([C@]2(C(F)F)COCC(N)=N2)c1 [Example 223] | 0.059 µM
[2H]C([2H])([2H])OCc1cc(OC([2H])([2H])[2H])cnc1C(=O)Nc1ccc(F)c([C@]2(C(F)F)COCC(N)=N2)c1 [Example 224] | 0.103 µM
N#Cc1cnc(C(=O)Nc2ccc(F)c([C@]3(C(F)F)COCC(N)=N3)c2)c(N)c1 [Example 225] | 0.027 µM
NC1=N[C@@](c2cc(NC(=O)c3ncc(C(F)F)cc3N)ccc2F)(C(F)F)COC1 [Example 226] | 0.09 µM
[2H]C([2H])([2H])Oc1cnc(C(=O)Nc2ccc(F)c([C@]3(C(F)F)COCC(N)=N3)c2)c(C)c1 [Example 227] | 0.064 µM
Cc1cc(C#N)cnc1C(=O)Nc1cc(F)c(F)c([C@]2(C(F)F)COCC(N)=N2)c1 [Example 228, 5-Cyano-3-methyl-pyridine-2-carboxylic acid [3-((R)-5-amino-3-difluoromethyl-3,6-dihydro-2H-[1,4]oxazin-3-yl)-4,5-difluoro-phenyl]-amide] | 0.061 µM
[2H]C([2H])([2H])Oc1cnc(C(=O)Nc2cc(F)c(F)c([C@]3(C(F)F)COCC(N)=N3)c2)c(Cl)c1 [Example 229, 3-Chloro-5-trideuteromethoxy-pyridine-2-carboxylic acid [3-((R)-5-amino-3-difluoromethyl-3,6-dihydro-2H-[1,4]oxazin-3-yl)-4,5-difluoro-phenyl]-amide] | 0.073 µM
[2H]c1nc(C(=O)Nc2cc(F)c(F)c([C@]3(C(F)F)COCC(N)=N3)c2)c(C([2H])([2H])[2H])c([2H])c1Cl [Example 230, 4,6-Dideutero-5-chloro-3-trideuteromethyl-pyridine-2-carboxylic acid [3-((R)-5-amino-3-difluoromethyl-3,6-dihydro-2H-[1,4]oxazin-3-yl)-4,5-difluoro-phenyl]-amide] | 0.008 µM
C[C@@]1(c2cc(NC(=O)c3ncc(C#N)cc3Cl)ccc2F)CO[C@@](C)(C(F)(F)F)C(N)=N1 [Example 231, 3-Chloro-5-cyano-pyridine-2-carboxylic acid [3-((3R,6R)-5-amino-3,6-dimethyl-6-trifluoromethyl-3,6-dihydro-2H-[1,4]oxazin-3-yl)-4-fluoro-phenyl]-amide hydrochloride] | 0.006 µM
COc1cnc(C(=O)Nc2ccc(F)c([C@]3(C)CO[C@@](C)(C(F)(F)F)C(N)=N3)c2)c(Cl)c1 [Example 232, 3-Chloro-5-methoxy-pyridine-2-carboxylic acid [3-((3R,6R)-5-amino-3,6-dimethyl-6-trifluoromethyl-3,6-dihydro-2H-[1,4]oxazin-3-yl)-4-fluoro-phenyl]-amide hydrochloride] | 0.007 µM
Cc1cc(Cl)cnc1C(=O)Nc1ccc(F)c([C@]2(C)CO[C@@](C)(C(F)(F)F)C(N)=N2)c1 [Example 234, 5-Chloro-3-methyl-pyridine-2-carboxylic acid [3-((3R,6R)-5-amino-3,6-dimethyl-6-trifluoromethyl-3,6-dihydro-2H-[1,4]oxazin-3-yl)-4-fluoro-phenyl]-amide hydrochloride] | 0.002 µM
C[C@@]1(c2cc(NC(=O)c3ncc(Cl)cc3F)ccc2F)CO[C@@](C)(C(F)(F)F)C(N)=N1 [Example 235, 5-Chloro-3-fluoro-pyridine-2-carboxylic acid [3-((3R,6R)-5-amino-3,6-dimethyl-6-trifluoromethyl-3,6-dihydro-2H-[1,4]oxazin-3-yl)-4-fluoro-phenyl]-amide hydrochloride] | 0.002 µM
Cl.[2H]C([2H])([2H])Oc1cnc(C(=O)Nc2ccc(F)c([C@]3(C)CO[C@@](C)(C(F)(F)F)C(N)=N3)c2)c(Cl)c1 [Example 236, 3-Chloro-5-trideutero-methoxy-pyridine-2-carboxylic acid [3-((3R,6R)-5-amino-3,6-dimethyl-6-trifluoromethyl-3,6-dihydro-2H-[1,4]oxazin-3-yl)-4-fluoro-phenyl]-amide hydrochloride] | 0.006 µM

Source: US20140128385A1 (NOVARTIS AG, priority 2011, published 2014)
